Results from US20180110824A1, “Macrocyclic Modulators of the Ghrelin Receptor” (Ocera Therapeutics, Inc., priority 2016, published 2018).
Read-outs that look alike come from different tables or passages of the source.

Target: T1, human growth hormone secretagogue receptor (hGHS-R1a) (Homo sapiens, UniProt Q92847)
T1 construct: purchased PerkinElmer BioSignal #RBHGHSM; host or cells: HEK-293, stably transfected
Assay: Competitive radioligand binding assay (ghrelin receptor), [125I]-ghrelin displacement on GHS-R/HEK 293 membranes
Method: The competitive binding assay at the human growth hormone secretagogue receptor (hGHS-R1a) was carried out analogously to assays described in the literature.
Multiscreen Harvest plates-GF/C (Millipore, #MAHFC1H60) • 4. […] Bottom seal (Millipore, #MATAH0P00) • 7. […] Binding Buffer: 25 mM Hepes (pH 7.4), 1 mM CaCl2, 5 mM MgCl2, 2.5 mM EDTA, 0.4% BSA
Competition experiments were performed in a 300 μl filtration assay format. • 1. 220 μL of membranes diluted in binding buffer • 2. 40 μL of compound diluted in binding buffer • 3.
Compounds were provided frozen on dry ice at a stock concentration of 10 mM diluted in 100% DMSO and stored at −80° C. until the day of testing. On the test day, compounds were allowed to thaw at rt O/N and then diluted in assay buffer according to the desired test concentrations. Under these conditions, the maximal final DMSO concentration in the assay was 0.1%.
Plates were sealed with TopSeal-A, vortexed gently and incubated at rt for 30 min. The reaction was arrested by filtering samples through Multiscreen Harvest plates (pre-soaked in 0.5% polyethyleneimine) using a Tomtec Harvester, washed 9 times with 500 μL of cold 50 mM Tris-HCl (pH 7.4, 4° C.), and then plates were air-dried in a fumehood 30 min. A bottom seal was applied to the plates prior to the addition of 25 μL of MicroScint-0 to each well. […] Results were expressed as counts per minute (cpm).
Data were analyzed by GraphPad Prism (GraphPad Software, San Diego, Calif.) using […] non-linear regression analysis.
where total and non-specific binding represent the cpm obtained in the absence or presence of 1 μM ghrelin, respectively.
• 1. Binding performed on membranes prepared from HEK293 expressing the transfected, cloned human ghrelin receptor (hGHS-R1a). • 2. […] Ghrelin (unlabeled, 1 μM) was used to determine non-specific binding. • 4.

[1] = Table 3B, binding activity at the human ghrelin receptor, read-out: Ki
[2] = Binding activity at the human ghrelin receptor, [125I]-ghrelin displacement, read-out: Ki

T1 sequence (Q92847 whole entry): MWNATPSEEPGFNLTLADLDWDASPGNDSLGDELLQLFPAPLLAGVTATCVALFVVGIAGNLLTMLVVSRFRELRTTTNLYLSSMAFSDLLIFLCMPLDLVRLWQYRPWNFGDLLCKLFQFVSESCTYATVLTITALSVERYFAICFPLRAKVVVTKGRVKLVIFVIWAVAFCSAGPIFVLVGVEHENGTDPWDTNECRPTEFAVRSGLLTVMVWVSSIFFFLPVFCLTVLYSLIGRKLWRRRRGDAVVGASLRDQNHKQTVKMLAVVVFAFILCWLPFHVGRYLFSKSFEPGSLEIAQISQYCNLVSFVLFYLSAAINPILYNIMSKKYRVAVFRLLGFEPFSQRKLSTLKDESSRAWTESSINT

| SMILES | Ki [2] [nM] | further results |
| --- | --- | --- |
| CCC(C)[C@@H]1NCCOc2ccccc2/C=C/CNC(=O)[C@H](Cc2ccc(F)c(F)c2)NC(=O)C2(CCCC2)NC1=O (some centres unmarked) [331a] | – | Ki [1]: 10 to 100 nM |
| CCC(C)C1NCCOc2ccccc2C=CCNC(=O)C(Cc2cccc(C(F)(F)F)c2)NC(=O)C2(CCCC2)NC1=O (centres unmarked) [332a] | – | Ki [1]: 10 to 100 nM |
| CCC(C)[C@@H]1NCCCc2ccccc2/C=C/CNC(=O)[C@@H](Cc2ccc(F)cc2)NC(=O)[C@@H](C)N(C)C1=O (some centres unmarked) [353a] | – | Ki [1]: 10 to 100 nM |
| CC(C)C[C@@H]1NCCOc2ccccc2/C=C/CNC(=O)[C@H](Cc2c[nH]cn2)NC(=O)C2(CCCC2)NC1=O [444a] | – | Ki (Table 3D, read-out: Ki): > 10000 nM |
| CCC[C@@H]1NCCOc2ccccc2CCCNC(=O)[C@@H](Cc2ccccc2)NC(=O)[C@H]2CCCN2C1=O [Compound 221] | – | Ki (Table 3E, read-out: Ki): 100 to 1000 nM; Ki ([125I]-ghrelin displacement, GHS-R/HEK 293 membranes, class symbols, read-out: Binding Activity at the Human Ghrelin Receptor (Ki)): 100 to 1000 nM |
| CC(C)C[C@@H]1NCCOc2ccccc2/C=C/CNC(=O)[C@H](Cc2cccc3ccccc23)NC(=O)C2(CCCC2)NC1=O [compound 22] | 10 to 100 | – |
| CC(C)C[C@@H]1NCCOCCNC(=O)[C@H](Cc2ccccc2)NC(=O)C2(CCCC2)NC1=O [compound 44] | > 10000 | – |
| CCC[C@@H]1NC(=O)C2(CCCC2)NC(=O)[C@H](CC(C)C)NCCOc2ccccc2/C=C/CNC1=O [compound 48] | > 10000 | – |
| CCC[C@@H]1NCCOc2ccccc2CCCNC(=O)[C@@H](C)NC(=O)CN(C)C1=O [compound 49] | > 10000 | – |
| CCC[C@@H]1NCCOc2ccccc2CCCNC(=O)[C@@H](CCC(=O)O)NC(=O)CN(C)C1=O [compound 50] | > 10000 | – |
| CCC[C@@H]1NCCOc2ccccc2CCCNC(=O)CNC(=O)CN(C)C1=O [compound 51] | > 10000 | – |
| CCCC[C@H]1NC(=O)CN(C)C(=O)[C@H](CCC)NCCOc2ccccc2CCCNC1=O [compound 52] | 100 to 1000 | – |
| CCC[C@@H]1NCCOc2ccccc2CCCNC(=O)[C@@H](CCCN)NC(=O)CN(C)C1=O [compound 53] | > 10000 | – |
| CCC[C@@H]1NCCOc2ccccc2CCCNC(=O)[C@@H](CO)NC(=O)CN(C)C1=O [compound 54] | > 10000 | – |
| CCC[C@@H]1NCCOc2ccccc2CCCNC(=O)[C@@H](Cc2ccccc2)NC(=O)[C@H](Cc2ccccc2)NC1=O [compound 64] | > 10000 | – |
| CCC[C@@H]1NCCOc2ccccc2CCCNC(=O)[C@@H](Cc2ccccc2)NC(=O)[C@@H](Cc2ccccc2)NC1=O [compound 65] | 1000 to 10000 | – |
| CCC[C@@H]1NCCOc2ccccc2CCCNC(=O)[C@@H](Cc2ccccc2)NC(=O)C2(CCCC2)NC1=O [compound 67] | 100 to 1000 | – |
| CCC[C@@H]1NCCOc2ccccc2CCCNC(=O)[C@@H](Cc2ccccc2)NC(=O)[C@H](CCCCN)NC1=O [compound 68] | 1000 to 10000 | – |
| CCC[C@@H]1NCCOc2ccccc2CCCNC(=O)[C@@H](Cc2ccccc2)NC(=O)[C@@H](CCCCN)NC1=O [compound 69] | > 10000 | – |
| CCC[C@@H]1NCCOc2ccccc2CCCNC(=O)[C@@H](Cc2ccccc2)NC(=O)[C@H](CCC(=O)O)NC1=O [compound 70] | > 10000 | – |

| SMILES | Ki [2] [nM] | further results |
| --- | --- | --- |
| CCC[C@@H]1NCc2ccccc2Sc2ccccc2CNC(=O)[C@@H](Cc2ccccc2)NC(=O)CN(C)C1=O [compound 77] | 100 to 1000 | – |
| CCCC1NCCOCCNC(=O)C(Cc2ccccc2)NC(=O)CN(C)C1=O (centres unmarked) [compound 81] | > 10000 | – |
| CCCC1NCC/C=C/CCNC(=O)C(Cc2ccccc2)NC(=O)CN(C)C1=O (centres unmarked) [compound 83] | > 10000 | – |
| CC(C)C[C@@H]1NCCOc2ccccc2CCCNC(=O)[C@H](C)NC(=O)C2(CCCC2)NC1=O [compound 87] | > 10000 | – |
| CC(C)C[C@@H]1NCCOc2ccccc2CCCNC(=O)[C@H](Cc2ccc(O)cc2)NC(=O)C2(CCCC2)NC1=O [compound 88] | 1000 to 10000 | – |
| CC(C)C[C@@H]1NCCOc2ccccc2CCCNC(=O)[C@H](Cc2c[nH]c3ccccc23)NC(=O)C2(CCCC2)NC1=O [compound 89] | 1000 to 10000 | – |
| CC(C)C[C@@H]1NCCOc2ccccc2CCCNC(=O)[C@H](CCCCN)NC(=O)C2(CCCC2)NC1=O [compound 91] | > 10000 | – |
| CC(C)C[C@@H]1NCCOc2ccccc2CCCNC(=O)[C@H](CCC(=O)O)NC(=O)C2(CCCC2)NC1=O [compound 92] | > 10000 | – |
| C[C@@H]1NCCOc2ccccc2CCCNC(=O)[C@H](Cc2ccccc2)NC(=O)C2(CCCC2)NC1=O [compound 100] | 100 to 1000 | – |
| CCCC[C@@H]1NCCOc2ccccc2CCCNC(=O)[C@H](Cc2ccccc2)NC(=O)C2(CCCC2)NC1=O [compound 101] | 100 to 1000 | – |
| O=C1NC2(CCCC2)C(=O)N[C@@H](Cc2ccccc2)C(=O)NCCCc2ccccc2OCCN[C@H]1Cc1ccccc1 [compound 102] | 100 to 1000 | – |
| NCCCC[C@@H]1NCCOc2ccccc2CCCNC(=O)[C@H](Cc2ccccc2)NC(=O)C2(CCCC2)NC1=O [compound 103] | > 10000 | – |
| O=C(O)CC[C@@H]1NCCOc2ccccc2CCCNC(=O)[C@H](Cc2ccccc2)NC(=O)C2(CCCC2)NC1=O [compound 104] | > 10000 | – |
| O=C1NC2(CCCC2)C(=O)N[C@@H](Cc2ccccc2)C(=O)NCCCc2ccccc2OCCN[C@H]1CO [compound 105] | 100 to 1000 | – |
| CC(C)C[C@@H]1NCc2ccccc2Sc2ccccc2CNC(=O)[C@H](Cc2ccccc2)NC(=O)C2(CCCC2)NC1=O [compound 108] | 1000 to 10000 | – |
| O=C1NC2(CCCC2)C(=O)N[C@@H](Cc2ccccc2)C(=O)NC/C=C/c2ccccc2OCCN[C@H]1Cc1ccc(F)cc1 [compound 125] | > 10000 | – |
| COc1ccc(C[C@@H]2NCCOc3ccccc3/C=C/CNC(=O)[C@H](Cc3ccccc3)NC(=O)C3(CCCC3)NC2=O)cc1 [compound 127] | 100 to 1000 | – |
| O=C1NC/C=C/c2ccccc2OCCN[C@@H](C(c2ccccc2)c2ccccc2)C(=O)NC2(CCCC2)C(=O)N[C@H]1Cc1ccccc1 [compound 129] | > 10000 | – |
| O=C1NC2(CCCC2)C(=O)N[C@@H](Cc2ccccc2)C(=O)NC/C=C/c2ccccc2OCCN[C@H]1Cc1cccc2ccccc12 [compound 130] | 1000 to 10000 | – |

Continued, in another order:

| Ki [2] [nM] | SMILES | further results |
| --- | --- | --- |
| 100 to 1000 | CC[C@H](C)[C@@H]1NCCOc2ccccc2CCCNC(=O)[C@@H](Cc2cscn2)NC(=O)[C@@H](C)N(C)C1=O [compound 33] | – |
| 1000 to 10000 | CCC[C@H]1NCCOc2ccccc2CCCNC(=O)[C@@H](Cc2ccccc2)NC(=O)CN(C)C1=O [compound 55] | – |
| > 10000 | CCC[C@H]1NCCOc2ccccc2CCCNC(=O)[C@H](Cc2ccccc2)NC(=O)CN(C)C1=O [compound 56] | – |
| 100 to 1000 | CCC[C@@H]1NCCOc2ccccc2CCCNC(=O)[C@H](Cc2ccccc2)NC(=O)CN(C)C1=O [compound 57] | – |
| 100 to 1000 | CCC[C@@H]1NCCOc2ccccc2CCCNC(=O)[C@@H](Cc2ccccc2)NC(=O)CNC1=O [compound 61] | – |
| 1000 to 10000 | CCC[C@@H]1NCCOc2ccccc2CCCNC(=O)[C@@H](Cc2ccccc2)NC(=O)[C@H](CC(C)C)NC1=O [compound 62] | – |
| > 10000 | CCC[C@@H]1NCCOc2ccccc2CCCNC(=O)[C@@H](Cc2ccccc2)NC(=O)[C@@H](CC(C)C)NC1=O [compound 63] | – |
| 100 to 1000 | CCC[C@@H]1NCCOc2ccccc2CCCNC(=O)[C@@H](Cc2ccccc2)NC(=O)C(C)(C)NC1=O [compound 66] | – |
| > 10000 | CCC[C@@H]1NCCOc2ccccc2CCCNC(=O)[C@@H](Cc2ccccc2)NC(=O)[C@@H](CCC(=O)O)NC1=O [compound 71] | – |
| > 10000 | CN1CC(=O)N[C@H](Cc2ccccc2)C(=O)NCCCc2ccccc2OCCN[C@@H](CCC(=O)O)C1=O [compound 73] | – |
| > 10000 | CN1CC(=O)N[C@H](Cc2ccccc2)C(=O)NCCCc2ccccc2OCCN[C@@H](CO)C1=O [compound 76] | – |
| > 10000 | CN1CC(=O)NC(Cc2ccccc2)C(=O)NCCCc2ccccc2OCCNCC1=O (centres unmarked) [compound 80] | – |
| 1000 to 10000 | CC(C)C[C@@H]1NCCOc2ccccc2CCCNC(=O)[C@H](CCc2ccccc2)NC(=O)C2(CCCC2)NC1=O [compound 90] | – |
| 1000 to 10000 | CC(C)C[C@@H]1NCCOc2ccccc2CCCNC(=O)[C@H](Cc2ccccc2)NC(=O)C(C)(C)NC1=O [compound 95] | – |
| > 10000 | CC(C)C[C@H]1NCCOc2ccccc2CCCNC(=O)[C@H](Cc2ccccc2)NC(=O)C2(CCCC2)NC1=O [compound 96] | – |
| > 10000 | CC(C)C[C@H]1NCCOc2ccccc2CCCNC(=O)[C@@H](Cc2ccccc2)NC(=O)C2(CCCC2)NC1=O [compound 98] | – |
| 10 to 100 | CC[C@@H]1NCCOc2ccccc2CCCNC(=O)[C@@H](Cc2ccccc2)NC(=O)[C@@H](C)N(C)C1=O [compound 117] | – |
| 10 to 100 | CC(C)C[C@@H]1NCCOc2ccccc2CCCNC(=O)[C@@H](Cc2ccccc2)NC(=O)[C@@H](C)N(C)C1=O [compound 118] | – |
| > 10000 | C[C@@H]1C(=O)N[C@H](Cc2ccccc2)C(=O)NCCCc2ccccc2OCCNC2(CC2)C(=O)N1C [compound 121] | – |
